Where no end group is shown, it is not given here.
Biological target: T1, Nox1 oxidase (COS-Nox1 lysate: hNox1, p22phox, NOXO1, NOXA1) (Homo sapiens, UniProt Q9Y5S8)
T1 construct: expressed in transfected cells; host or cells: COS-22 cells (COS 7 with p22phox), transiently cotransfected; cell lysate used
T1 sequence (Q9Y5S8 1-564): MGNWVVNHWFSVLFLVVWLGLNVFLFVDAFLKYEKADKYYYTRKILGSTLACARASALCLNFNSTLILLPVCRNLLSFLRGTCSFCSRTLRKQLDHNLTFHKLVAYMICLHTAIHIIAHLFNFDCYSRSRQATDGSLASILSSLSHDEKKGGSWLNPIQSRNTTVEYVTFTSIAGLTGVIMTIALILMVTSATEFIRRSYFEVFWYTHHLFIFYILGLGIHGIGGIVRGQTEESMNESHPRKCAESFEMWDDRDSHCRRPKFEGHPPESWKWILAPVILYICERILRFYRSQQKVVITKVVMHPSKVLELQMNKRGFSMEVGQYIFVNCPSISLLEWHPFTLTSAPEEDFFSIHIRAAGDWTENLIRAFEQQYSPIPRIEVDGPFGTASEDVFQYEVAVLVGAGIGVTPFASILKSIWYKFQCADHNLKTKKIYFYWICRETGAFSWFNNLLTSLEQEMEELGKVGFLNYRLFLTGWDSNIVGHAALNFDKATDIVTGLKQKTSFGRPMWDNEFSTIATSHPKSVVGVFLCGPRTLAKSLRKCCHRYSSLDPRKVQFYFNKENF
T1 sequence (P13498 2-195 partner limits assumed): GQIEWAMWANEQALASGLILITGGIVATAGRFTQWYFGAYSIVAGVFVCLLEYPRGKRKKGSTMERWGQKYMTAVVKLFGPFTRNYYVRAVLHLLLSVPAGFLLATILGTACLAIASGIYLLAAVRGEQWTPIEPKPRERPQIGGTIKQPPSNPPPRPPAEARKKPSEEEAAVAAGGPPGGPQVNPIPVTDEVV
Test: Cell-free SOD-inhibitable cytochrome c reduction assay, O2- production in COS-Nox1 lysates
Assay type: biochemical
Protocol: To test this hypothesis, the inhibitory activity of Nox2ds was assessed in cell-free assays using reconstituted systems expressing either Nox1, 2 or 4 oxidase. Nox 2 oxidase was recapitulated by stably transfecting COS 7 cells with Nox2, p22phox, p47phox, and p67phox (aka COS-Nox2). Nox1 oxidase was obtained by transfecting COS 7 cells with Nox1, p22phox, NOXO1 and NOXA1 (COS-Nox1), and Nox 4 oxidase was regenerated by transfection of COS 7 cells with Nox4 and p22phox. […] Our new data support selectivity of Nox2ds peptide in differentiating the contribution of Nox2 vs. Nox1 and Nox4 NADPH oxidase and its potential clinical use in ameliorating cardiopulmonary diseases.
Cell transfection was carried out using Lipofectamine LTX and Plus reagent (Invitrogen), according to the manufacturer's instructions. COS-22 cells were transiently cotransfected with pcDNA 3.1-hNox1, pCMVsport 6-hNOXA1, and pcDNA3.1-hNoxO1 (COS-Nox1/NOXO1/NOXA1 cells). Cells were used 24 h after transfection. […]
Superoxide (O2^−) production was measured in COS-Nox1 and COS-Nox2 lysates by determining the rate of O2^− dismutase (SOD) inhibitable cytochrome c reduction and by electron paramagnetic resonance (EPR). […]
O2^− production was initiated by the addition of NADPH and measured by the SOD-inhibitable cytochrome c reduction for 10 min.

**Q.** For CSTRVRRQL-NH2 [Nox2ds, CSTRVRRQL], which “inhibition of Nox1-derived O2- production (in words)” value is on record?
**A.** did not inhibit

**Q.** What about the “rate of Nox1-derived O2- production, cytochrome c reduction” value (10 μM peptide, 0 μM control 0.97±0.14) of the same substance?
**A.** 0.765±0.19 nmol O2^−/min/10^7 cell equivalents

Reference: patent US9585933B2, “Therapeutic use of peptide inhibitors of NADPH oxidase; aerosolization as a delivery mechanism” (University of Pittsburgh—Of the Commonwealth System of …, priority 2011, dated 2017)
